From US11166924B2, “N-methyl-d-aspartate receptor allosteric modulators and methods for their use” (Qingdao Primedicine Pharmaceutical Company, Ltd., priority 2016, dated 2021)

Experiments:
GluN1/GluN2A NMDARs = target: T1, GluN1/GluN2A NMDARs (Rattus norvegicus, UniProt P35439+Q00959); assay: Whole-cell patch clamp recordings in HEK293 cells transfected with GluN1/GluN2A; format: cell-based; settings: for activation at 100 µM / activation at 50 µM: HEK293, Table 2, read-out: Normalized Potentiation GluN1/GluN2A; for Normalized Potentiation / EC50: Table 1; for Normalized Potentiation: positive modulation of GluN1/GluN2A NMDARs, concentration not given; for activation at 50 µM: 50 μM (footnote *); for EC50: potentiation, read-out: EC50
T1 construct: expressed in transfected cells; host or cells: HEK293
T1 sequence (Q00959 23-1464, other chains not shown): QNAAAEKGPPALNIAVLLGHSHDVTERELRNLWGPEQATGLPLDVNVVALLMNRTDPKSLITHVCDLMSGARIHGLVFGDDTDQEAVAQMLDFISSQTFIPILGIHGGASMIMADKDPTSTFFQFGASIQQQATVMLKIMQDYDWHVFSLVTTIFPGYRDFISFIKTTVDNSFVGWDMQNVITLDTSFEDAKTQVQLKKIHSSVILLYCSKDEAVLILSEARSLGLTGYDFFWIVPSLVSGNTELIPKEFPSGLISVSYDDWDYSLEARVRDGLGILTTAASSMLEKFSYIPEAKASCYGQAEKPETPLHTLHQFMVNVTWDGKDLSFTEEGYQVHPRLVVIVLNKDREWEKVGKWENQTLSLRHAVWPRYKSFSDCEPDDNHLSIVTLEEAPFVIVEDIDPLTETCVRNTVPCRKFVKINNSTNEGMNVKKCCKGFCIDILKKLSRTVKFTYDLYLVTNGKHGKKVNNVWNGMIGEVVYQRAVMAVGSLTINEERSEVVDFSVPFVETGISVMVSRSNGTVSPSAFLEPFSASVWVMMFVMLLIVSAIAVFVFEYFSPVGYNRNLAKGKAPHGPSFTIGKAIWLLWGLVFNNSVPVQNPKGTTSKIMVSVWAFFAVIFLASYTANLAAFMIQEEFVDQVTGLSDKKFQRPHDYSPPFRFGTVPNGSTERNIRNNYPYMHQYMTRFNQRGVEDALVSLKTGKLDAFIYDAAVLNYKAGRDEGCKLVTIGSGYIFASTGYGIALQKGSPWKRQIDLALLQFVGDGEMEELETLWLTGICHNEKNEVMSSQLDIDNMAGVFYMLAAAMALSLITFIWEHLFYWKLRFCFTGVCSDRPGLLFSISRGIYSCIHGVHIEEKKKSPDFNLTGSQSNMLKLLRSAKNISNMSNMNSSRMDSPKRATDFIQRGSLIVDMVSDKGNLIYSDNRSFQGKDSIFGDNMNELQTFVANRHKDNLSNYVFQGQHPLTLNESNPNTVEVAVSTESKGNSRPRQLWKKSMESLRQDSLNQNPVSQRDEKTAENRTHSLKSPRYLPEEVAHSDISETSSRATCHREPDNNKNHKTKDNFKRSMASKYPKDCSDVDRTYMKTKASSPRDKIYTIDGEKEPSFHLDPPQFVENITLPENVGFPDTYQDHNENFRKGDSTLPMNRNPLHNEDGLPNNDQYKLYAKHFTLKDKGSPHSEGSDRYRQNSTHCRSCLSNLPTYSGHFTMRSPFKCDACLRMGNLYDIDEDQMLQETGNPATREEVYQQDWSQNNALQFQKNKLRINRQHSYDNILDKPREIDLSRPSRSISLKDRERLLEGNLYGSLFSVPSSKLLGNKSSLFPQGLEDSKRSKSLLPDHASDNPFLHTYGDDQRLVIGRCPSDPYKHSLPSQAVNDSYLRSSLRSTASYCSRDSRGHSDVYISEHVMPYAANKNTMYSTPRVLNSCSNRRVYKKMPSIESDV
Method: Cells were transfected with a combination of pcDNA3-CMV expression vectors, each of which expressed one of the rat recombinant (GluN2AWT, GluN1WT, GluN2BWT) subunits. The sequences of all plasmids were confirmed by automated DNA sequencing. Human Embryonic Kidney 293 (HEK293 cells) were cultured in Dulbecco's Modified Eagle's Medium (DMEM) (Invitrogen) supplemented with 10% fetal bovine serum (FBS). When HEK293 cells achieved 90% confluence, plasmids of either GluN1 & GluN2A or GluN1 & GluN2B were co-transfected into the cells using Lipofectamine 2000 (Invitrogen, 11668019) according to manufacturer's instructions. HEK293 cells were then maintained in the 37° C. incubator with […] and 5% CO2 for 48 hrs before being used in experiments. The transfection ratios for the NMDAR subunit combinations were all 1:1 (GluN1/GluN2A or GluN1/GluN2B).
Whole cell patch-clamp recordings were performed under voltage-clamp mode using an Axopatch 200B or 1D patch-clamp amplifier (Molecular Devices). Whole-cell currents were recorded at a holding potential of −60 mV unless indicated elsewhere, and signals were filtered at 2 kHz, digitized at 10 kHz (Digidata 1322A). Recording pipettes (3-5 MΩ) were filled with intracellular solution containing (mM): CsCl 140, HEPES 10, Mg-ATP 4, QX-314 5, pH 7.20; osmolarity, 290-295 mOsm. BAPTA (10 mM) was added in the intracellular solution (unless otherwise specified). The coverslips were continuously superfused with extracellular solution containing (mM): NaCl 140, KCl 5.4, HEPES 10, CaCl2 1.3, glucose 20, pH 7.4; osmolarity, 305-315 mOsm. NMDA-induced currents were applied by NMDA through perfusion fast-step (Warner Instruments). With perfusion fast-step system, NMDA application was achieved by using a two-square barrel glass tubing and depending on the age of the cultured neurons, CNQX (10 μM), TTX (0.5 μM) or BIC (10 μM) were added in the extracellular solution to minimize the activation of ionotropic glutamate receptors and voltage-gated sodium channels, respectively. All experiments were performed at room temperature. Recordings from at least six HEK293 cells/neurons were performed for all active compounds. Data were pooled among HEK293 cells or primary neurons and composite dose-response data were fitted by the equation Percentage Response=100×Relative Efficacy/[1+(EC50/Concentration)nH], where EC50 is the concentration of agonist that produces a half-maximal response, relative efficacy is the response at maximally effective concentration relative to the maximal response of glutamate, and nH is the Hill slope.
GluN1/GluN2A NMDAR subtypes are an attractive target for positive allosteric modulation. The present inventors employed in silico computational drug discovery methods to conduct a virtual screen of purchasable lead-like compounds from the ZINC database (Irwin, J., et al. Abstr Pap Am Chem Soc (2005) 230:U1009) and some synthetic compounds to identify potential GluN1/GluN2A-NMDAR modulators. The in silico methods included large-scale docking against the interstice interface of the GluN1/GluN2A heterodimer and consensus scoring to select compounds for empirical testing. Candidate compounds were further screened by using GluN1/GluN2A transiently transfected in human embryonic kidney (HEK293) cells and tested by whole-cell patch clamp recordings.
The inventors used transiently transfected HEK293 cells expressing either GluN1/GluN2A or GluN1/GluN2B NMDARs and tested by whole-cell voltage patch clamp recordings to see whether selected compounds were controlling the subtype selectivity profile of the drugs.
Whole-cell patch clamp recordings were performed to measure glutamate evoked currents with chloride-based pipette solutions at a holding potential of −60 mV.

GluN1/GluN2B NMDARs = target: T2, GluN1/GluN2B NMDARs (Rattus norvegicus, UniProt P35439+Q00960); assay: Whole-cell patch clamp recordings in HEK293 cells transfected with GluN1/GluN2B; format: cell-based; settings: for activation at 50 µM: 50 μM (footnote *)
T2 construct: expressed in transfected cells; host or cells: HEK293
T2 sequence (Q00960 27-1482, other chains not shown): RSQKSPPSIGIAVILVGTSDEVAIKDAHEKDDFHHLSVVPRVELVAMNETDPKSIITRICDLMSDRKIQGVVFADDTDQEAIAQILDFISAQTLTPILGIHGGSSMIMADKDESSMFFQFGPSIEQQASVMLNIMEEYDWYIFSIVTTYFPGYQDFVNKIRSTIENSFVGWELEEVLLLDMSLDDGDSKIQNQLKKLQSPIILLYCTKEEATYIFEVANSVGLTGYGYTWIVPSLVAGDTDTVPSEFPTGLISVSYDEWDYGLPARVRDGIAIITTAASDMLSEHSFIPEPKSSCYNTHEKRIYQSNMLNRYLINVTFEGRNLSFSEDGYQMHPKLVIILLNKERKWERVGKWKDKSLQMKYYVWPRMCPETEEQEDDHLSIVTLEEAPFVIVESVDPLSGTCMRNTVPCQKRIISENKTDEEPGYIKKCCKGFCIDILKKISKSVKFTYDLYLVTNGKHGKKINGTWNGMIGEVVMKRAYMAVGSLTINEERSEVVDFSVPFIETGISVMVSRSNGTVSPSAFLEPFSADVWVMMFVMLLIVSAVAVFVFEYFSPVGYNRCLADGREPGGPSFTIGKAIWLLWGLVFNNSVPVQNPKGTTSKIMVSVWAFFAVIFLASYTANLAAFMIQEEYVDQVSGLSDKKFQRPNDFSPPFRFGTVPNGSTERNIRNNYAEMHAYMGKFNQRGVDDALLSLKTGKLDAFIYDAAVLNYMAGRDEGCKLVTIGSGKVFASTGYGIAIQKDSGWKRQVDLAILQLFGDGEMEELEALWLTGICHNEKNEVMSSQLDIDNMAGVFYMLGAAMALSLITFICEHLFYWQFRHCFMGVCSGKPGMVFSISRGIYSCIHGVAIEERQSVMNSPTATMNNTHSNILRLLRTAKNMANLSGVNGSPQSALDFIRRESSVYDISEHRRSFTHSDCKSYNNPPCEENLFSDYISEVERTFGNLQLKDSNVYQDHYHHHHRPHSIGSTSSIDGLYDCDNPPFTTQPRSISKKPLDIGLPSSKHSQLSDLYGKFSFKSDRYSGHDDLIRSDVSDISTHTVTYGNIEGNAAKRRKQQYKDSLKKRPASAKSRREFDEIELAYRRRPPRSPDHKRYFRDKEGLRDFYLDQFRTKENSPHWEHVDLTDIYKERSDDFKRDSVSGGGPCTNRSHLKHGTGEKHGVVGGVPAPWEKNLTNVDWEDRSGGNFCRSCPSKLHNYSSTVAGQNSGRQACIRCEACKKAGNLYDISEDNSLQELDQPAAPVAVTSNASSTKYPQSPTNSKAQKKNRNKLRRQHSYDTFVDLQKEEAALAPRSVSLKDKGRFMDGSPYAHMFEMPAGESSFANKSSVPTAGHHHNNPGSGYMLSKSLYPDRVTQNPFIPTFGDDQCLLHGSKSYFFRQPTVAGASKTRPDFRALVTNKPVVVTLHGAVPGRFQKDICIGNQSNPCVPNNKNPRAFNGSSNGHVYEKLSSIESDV

[1] = HEK293, Table 2, read-out: Normalized Potentiation GluN1/GluN2B

Normalized Potentiation (GluN1/GluN2A NMDARs)	SMILES	further results
3.99 ± 4.92%	O=C(N/N=C/c1cccc(O)c1O)c1cccc(I)c1 [Npam30, (E)-N′-(2,3-dihydroxybenzylidene)-3-iodobenzohydrazide]	activation at 100 µM (GluN1/GluN2A NMDARs): 52.7 ± 4.87%; activation at 100 µM (GluN1/GluN2B NMDARs; [1]): -100 ± 2.83%
	O=C(N/N=C/c1cccc(O)c1O)c1ccc(O)cc1 [Npam68, (E)-N′-(2,3-dihydroxybenzylidene)-4-hydroxybenzohydrazide]	activation at 50 µM (GluN1/GluN2A NMDARs): 35.1 ± 4.85%; activation at 50 µM (GluN1/GluN2B NMDARs; [1]): -56.6 ± 7.45%
	Cc1cc2ccccc2cc1C(=O)N/N=C/c1cccc(O)c1O [Npam65, (E)-N′-(2,3-dihydroxybenzylidene)-3-methyl-2-naphthohydrazide]	activation at 50 µM (GluN1/GluN2A NMDARs): 51.8 ± 6.55%; activation at 50 µM (GluN1/GluN2B NMDARs; [1]): -46.9 ± 8.94%
	COc1cc([N+](=O)[O-])cc(/C=N/NC(=O)c2ccccc2C)c1O [Npam72, (E)-N′-(2-hydroxy-3-methoxy-5-nitrobenzylidene)-2-methylbenzohydrazide]	Selectivity for GluN1/GluN2A versus GluN1/GluN2B NMDARs (GluN1/GluN2A NMDARs; FIG. 2, HEK293 cells expressing GluN1/GluN2A and GluN1/GluN2B): selective for GluN1/GluN2A NMDARs; activation at 100 µM (GluN1/GluN2A NMDARs): 118 ± 18.5%; activation at 100 µM (GluN1/GluN2B NMDARs; [1]): -24.2 ± 4.55%
	COc1cccc(/C=N/NC(=O)c2ccccc2)c1O [Npam69, (E)-N′-(2-hydroxy-3-methoxybenzylidene)benzohydrazide]	activation at 50 µM (GluN1/GluN2A NMDARs): 11.1 ± 1.98%; activation at 50 µM (GluN1/GluN2B NMDARs; [1]): -34 ± 2.47%
	CC(C(O)c1ccc(O)cc1)N1CCC(Cc2ccccc2)CC1 (stereo not shown) [ifenprodril, reference compound]	Block of GluN1/GluN2B NMDAR currents (GluN1/GluN2B NMDARs): successfully blocked
−14.32 ± 2.20%	COc1cc(Br)cc(/C=N/NC(=O)c2ccc(NC(=O)c3ccc(C)cc3)cc2)c1O [Npam25, (E)-N-(4-(2-(5-bromo-2-hydroxy-3-methoxybenzylidene)hydrazinecarbonyl)phenyl)-4-methylbenzamide]	
	O=C(N/N=C/c1cccc(O)c1O)c1ccc(Br)cc1 [Npam73, (E)-4-bromo-N′-(2,3-dihydroxybenzylidene)benzohydrazide]	activation at 50 µM (GluN1/GluN2A NMDARs): 30.7 ± 4.76%; activation at 50 µM (GluN1/GluN2B NMDARs; [1]): -49.9 ± 6.87%
	O=C(N/N=C/c1cccc(O)c1O)c1cc(O)cc(O)c1 [Npam70, (E)-N′-(2,3-dihydroxybenzylidene)-3,5-dihydroxybenzohydrazide]	activation at 50 µM (GluN1/GluN2A NMDARs): -24.1 ± 2.47%; activation at 50 µM (GluN1/GluN2B NMDARs; [1]): -45.6 ± 3.67%
32.10 ± 3.02%	CCOc1cc(Cl)c(Cl)c(/C=N/NC(=O)c2ccccc2)c1O [Npam55, (E)-N′-(2,3-dichloro-5-ethoxy-6-hydroxybenzylidene)benzohydrazide]	
36.90 ± 5.62%	O=C(N/N=C/c1cccc(O)c1O)c1cccc(Br)c1 [Npam16, (E)-3-bromo-N′-(2,3-dihydroxybenzylidene)benzohydrazide]	
441.11 ± 36.50%	CCOc1cc(Cl)c(Cl)c(/C=N/NC(=O)c2cccc(Br)c2C)c1O [Npam50, 3-bromo-N′-[(1E)-(2,3-dichloro-5-ethoxy-6-hydroxyphenyl)methylidene]-2-methylbenzohydrazide]	EC50 (GluN1/GluN2A NMDARs): 250 nM
441.05 ± 150.41%	CCOc1cc(Cl)c(Cl)c(/C=N/NC(=O)c2ccc(OC)cc2)c1O [Npam48, (E)-N′-(2,3-dichloro-5-ethoxy-6-hydroxybenzylidene)-4-methoxybenzohydrazide]	EC50 (GluN1/GluN2A NMDARs): 100 nM
105.85 ± 12.62%	CCOc1cc(Cl)c(Cl)c(/C=N/NCc2ccccc2)c1O [Npam57, 2-[(1E)-(2-benzylhydrazin-1-ylidene)methyl]-3,4-dichloro-6-ethoxyphenol]	
103.77 ± 11.00%	CCOc1cccc(/C=N/NC(=O)c2cccc(Cl)c2C)c1O [Npam07, (E)-3-chloro-N′-(3-ethoxy-2-hydroxybenzylidene)-2-methylbenzohydrazide]	
213.60 ± 29.34%	CCOc1cc(Cl)cc(/C=N/NC(=O)c2ccccc2Br)c1O [Npam80, (E)-2-bromo-N′-(5-chloro-3-ethoxy-2-hydroxybenzylidene)benzohydrazide]	
4.02 ± 4.79%	O=C(N/N=C/c1cccc(O)c1O)c1ccc(Cl)cc1Cl [Npam36, (E)-2,4-dichloro-N′-(2,3-dihydroxybenzylidene)benzohydrazide]	
97.62 ± 6.03%	C=CCc1cc(/C=N/NC(=O)c2ccccc2Br)c(O)c(OC)c1 [Npam03, (E)-N′-(5-allyl-2-hydroxy-3-methoxybenzylidene)-2-bromobenzohydrazide]	
2.51 ± 3.79%	COc1cc(/C=N/NC(=O)c2ccccc2Br)c(Br)c(Br)c1O [Npam40, (E)-2-bromo-N′-(2,3-dibromo-4-hydroxy-5-methoxybenzylidene)benzohydrazide]	
59.83 ± 7.55%	CCOc1cc(Br)cc(/C=N/NC(=O)c2ccc(F)cc2)c1O [Npam22, (E)-N′-(5-bromo-3-ethoxy-2-hydroxybenzylidene)-4-fluorobenzohydrazide]	
	COc1cccc(/C=N/NC(=O)c2ccccc2I)c1O [Npam66, (E)-N′-(2-hydroxy-3-methoxybenzylidene)-2-iodobenzohydrazide]	activation at 100 µM (GluN1/GluN2A NMDARs): 45.7 ± 3.87%; activation at 25 µM (GluN1/GluN2B NMDARs; HEK293, Table 2, 25 μM, read-out: Normalized Potentiation GluN1/GluN2B): -20.9 ± 3.69%
206.28 ± 33.62%	CCOc1cc(Br)c(Br)c(/C=N/NC(=O)c2cccc(Cl)c2C)c1O [Npam10, 3-chloro-N′-[(1E)-(2,3-dibromo-5-ethoxy-6-hydroxyphenyl)methylidene]-2-methylbenzohydrazide]	
−0.278 ± 5.62%	CCOc1cc(/C=N/NC(=O)c2ccccc2Br)cc(Br)c1O [Npam27, (E)-2-bromo-N′-(3-bromo-5-ethoxy-4-hydroxybenzylidene)benzohydrazide]	
−12.47 ± 2.06%	Cc1ccccc1C(=O)N/N=C/c1cccc(O)c1O [Npam34, (E)-N′-(2,3-dihydroxybenzylidene)-2-methylbenzohydrazide]	
30.25 ± 2.87%	CCOc1cc(Br)cc(/C=N/NC(=O)c2ccncc2)c1O [Npam28, N′-[(1E)-(5-bromo-3-ethoxy-2-hydroxyphenyl)methylidene]pyridine-4-carbohydrazide]	
512.24 ± 28.67%	COc1cc(Br)c(Br)c(/C=N/NC(=O)c2ccc(C(C)(C)C)cc2)c1O [Npam35, (E)-4-(tert-butyl)-N′-(2,3-dibromo-6-hydroxy-5-methoxybenzylidene)benzohydrazide]	EC50 (GluN1/GluN2A NMDARs): 220 nM
292.08 ± 44.70%	CCOc1cc(Br)c(Br)c(/C=N/NC(=O)c2ccccc2C)c1O [Npam04C, (E)-N′-(2,3-dibromo-5-ethoxy-6-hydroxybenzylidene)-2-methylbenzohydrazide]	
89.84 ± 27.86%	CCOc1cc(Br)cc(/C=N/NC(=O)c2cccc(C)c2C)c1O [Npam15, (E)-N′-(5-bromo-3-ethoxy-2-hydroxybenzylidene)-2,3-dimethylbenzohydrazide]	
435.94 ± 156.01%	COc1cc(Br)c(Br)c(/C=N/NC(=O)c2cccc(F)c2)c1O [Npam37, (E)-N′-(2,3-dibromo-6-hydroxy-5-methoxybenzylidene)-3-fluorobenzohydrazide]	
175.08 ± 14.42%	O=C(N/N=C/c1cc(Cl)cc(Cl)c1O)c1ccccc1Br [Npam26, (E)-2-bromo-N′-(3,5-dichloro-2-hydroxybenzylidene)benzohydrazide]	
